Assay results taken from PubChem BioAssay AID1199 (EPA DSSTox, 2008).
Active and inactive are the calls of the source.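 Rule for the calls: active = a tumour-causing dose and a tumour site recorded for mice in at least one sex group; inconclusive = only government mouse studies exist and were judged inadequate; inactive = mouse studies exist but none gave tumours.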

Test system: mouse carcinogenicity bioassay, TD50 from CPDB
Test: DSSTox (CPDBAS) Carcinogenic Potency Database Summary Mouse Bioassay Results
How it was run: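 Values are TD50 carcinogenic potencies from mouse chronic bioassays, taking the most positive result for each sex-species. Sources are published literature and NCI/NTP studies; target sites reflect author-reported positive findings.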

[1] = TD50_Mouse_Note: no positive results, TargetSites_Mouse_Female: no positive results
[2] = TD50_Mouse_Note: TD50 is harmonic mean of more than one positive test, TargetSites_Mouse_Female: liver
[3] = TD50_Mouse_Note: TD50 is harmonic mean of more than one positive test, TargetSites_Mouse_Female: mammary gland
[4] = TargetSites_Mouse_Female: no positive results
[5] = TD50_Mouse_Note: TD50 is harmonic mean of more than one positive test, TargetSites_Mouse_Female: liver, vascular system
[6] = TargetSites_Mouse_BothSexes: no positive results
[7] = TD50_Mouse_Note: only experiment is NCI/NTP bioassay inadequate, TargetSites_Mouse_Female: NTP bioassay inadequate

## CC1CC(C)(C)CC(OOC(C)(C)C)(OOC(C)(C)C)C1 (stereo not given)
[1]
  outcome: inactive; no positive results

## BrC(Br)Br
[1]
  outcome: inactive; no positive results

## CCOC(=O)CC(SP(=O)(OC)OC)C(=O)OCC (stereo not given)
[1]
  outcome: inactive; no positive results

## COc1ccccc1[N+](=O)[O-]
[2]
  Potency: 1.16 mmol/kg/day

## C[C@H]([C@H](O)CCC(C)(C)O)[C@H]1CC[C@@]2(O)C3=CC(=O)[C@@H]4C[C@@H](O)[C@@H](O)C[C@]4(C)[C@H]3CC[C@]12C
[3]
  Potency: 7.7e-05 mmol/kg/day

## Clc1ccc(C(c2ccccc2Cl)C(Cl)Cl)cc1 (stereo not given)
[1]
  outcome: inactive; no positive results

## Oc1ccc2ccccc2c1N=Nc1ccccc1
[1]
  outcome: inactive; no positive results

## C=CCl
TD50_Mouse_Note: TD50 is harmonic mean of more than one positive test, TargetSites_Mouse_Female: lung, mammary gland, vascular system
  Potency: 0.349 mmol/kg/day

## CC1CCC(C(C)C)C(O)C1 (stereo not given)
[1]
  outcome: inactive; no positive results

## CCCCN(N)C=O
TD50_Mouse_Note: TD50 is harmonic mean of more than one positive test, TargetSites_Mouse_Female: clitoral gland, lung
  Potency: 0.166 mmol/kg/day

## S=[Se]
TargetSites_Mouse_Female: liver, lung
  Potency: 0.624 mmol/kg/day

## Cl/C=C/CCl
TargetSites_Mouse_Female: lung, stomach, urinary bladder
  Potency: 0.447 mmol/kg/day
[4]
  Potency: 1.06 mmol/kg/day

## NC(N)=S
[1]
  outcome: inactive

## Oc1c(Cl)c(Cl)c(Cl)c(Cl)c1Cl
TD50_Mouse_Note: TD50 is harmonic mean of more than one positive test, TargetSites_Mouse_Female: adrenal gland, liver, vascular system
  Potency: 0.0901 mmol/kg/day
[5]
  Potency: 0.0864 mmol/kg/day
[1]
  outcome: inactive

## C[C@H](CCC(=O)O)[C@H]1CC[C@H]2[C@@H]3[C@H](O)C[C@@H]4C[C@H](O)CC[C@]4(C)[C@H]3CC[C@]12C
[6]
  outcome: inactive

## ClC/C=C/CCl
TD50_Mouse_Note: positive test results only by intraperitoneal or intravenous injection, TargetSites_Mouse_Female: peritoneal cavity
  Potency: 0.0122 mmol/kg/day

## c1ccc(-c2ccccc2)cc1
[1]
  outcome: inactive; no positive results

## CCCCCCC(=O)/C=C/CCCCCCCCC(=O)OC
[6]
  outcome: inactive

## COP(=S)(OC)Oc1ccc(SC)c(C)c1
[1]
  outcome: inactive; no positive results

## Cn1c(N)nc2ncc(-c3ccccc3)cc21
TD50_Mouse_Note: TD50 is harmonic mean of more than one positive test, TargetSites_Mouse_Female: hematopoietic system
  Potency: 0.127 mmol/kg/day

## NC(=O)CCCCC(N)=O
[1]
  outcome: inactive; no positive results

## Nc1ccc2cc3ccc(N)cc3nc2c1
[7]
  outcome: ntp bioassay inadequate

## [O]=[Nb](=[O])[OH]
[6]
  outcome: inactive

## C[C@]12CC[C@@H]3c4ccc(O)cc4CC[C@H]3[C@@H]1CC[C@@H]2O
[1]
  outcome: inactive

## Nc1ccc(-c2ccc(N)c(O)c2)cc1O
TD50_Mouse_Note: no positive results are statistically significant
  Potency: 1.22 mmol/kg/day

## c1ccc2sc(SNC3CCCCC3)nc2c1
[1]
  outcome: inactive; no positive results

## Cc1ccccc1N
[5]
  Potency: 5.85 mmol/kg/day

## Brc1cc(Br)c(-c2c(Br)c(Br)c(Br)c(Br)c2Br)c(Br)c1Br
[2]
  Potency: 0.00418 mmol/kg/day

## Cc1c(N)nc(C)c2c1[nH]c1ccccc12
[2]
  Potency: 0.15 mmol/kg/day

## CCCCCCCCCCCCN=C(N)N
[1]
  outcome: inactive; no positive results

## S=P(N1CC1)(N1CC1)N1CC1
TD50_Mouse_Note: positive test results only by intraperitoneal or intravenous injection, TD50 is harmonic mean of more than one positive, TargetSites_Mouse_Female: hematopoietic system
  Potency: 0.00118 mmol/kg/day

## FC(Cl)(Cl)Cl
[1]
  outcome: inactive; no positive results

## COc1ccc([N+](=O)[O-])cc1N=Nc1c(O)c(C(=O)Nc2cccc([N+](=O)[O-])c2)cc2ccccc12
[1]
  outcome: inactive; no positive results

## C=CC(OC(C)=O)c1ccc2c(c1)OCO2 (stereo not given)
TD50_Mouse_Note: no positive results
  outcome: inactive; no positive results

## NC(N)=O
[1]
  outcome: inactive; no positive results

## CC(=O)OC[C@]12C[C@H](OC(=O)CC(C)C)C(C)=C[C@H]1O[C@@H]1[C@H](O)[C@@H](OC(C)=O)[C@@]2(C)C12CO2 (stereo not given in full)
[4]
  Potency: 0.00189 mmol/kg/day

## ClC1=C(Cl)C2(Cl)C3C(Cl)C=CC3C1(Cl)C2(Cl)Cl (stereo not given)
[2]
  Potency: 0.00324 mmol/kg/day

## Clc1ccc(Cl)cc1
[2]
  Potency: 2.2 mmol/kg/day

## O[C@H]([C@H](O)[C@@H](O)CBr)[C@H](O)CBr
TD50_Mouse_Note: positive test results only by intraperitoneal or intravenous injection, TD50 is harmonic mean of more than one positive, TargetSites_Mouse_Female: hematopoietic system, lung
  Potency: 0.0357 mmol/kg/day

## CC(C)O
[1]
  outcome: inactive; no positive results

## CCN(Cc1cccc(S(=O)(=O)O)c1)c1ccc(C(=C2C=CC(=[N+](CC)Cc3cccc(S(=O)(=O)[O-])c3)C=C2)c2ccc(S(=O)(=O)O)cc2)cc1
[1]
  outcome: inactive; no positive results

## CC1(C)COC1=O
[1]
  outcome: inactive; no positive results

## CC(C)C(C(=O)OC(C#N)c1cccc(Oc2ccccc2)c1)c1ccc(Cl)cc1 (stereo not given)
[1]
  outcome: inactive; no positive results

## CNC(=O)CSP(=S)(OC)OC
[1]
  outcome: inactive; no positive results

## CC(C)(C)c1cc(O)ccc1O
[1]
  outcome: inactive; no positive results

## CCCN(N)C=O
TD50_Mouse_Note: TD50 is harmonic mean of more than one positive test, TargetSites_Mouse_Female: gall bladder, liver, lung
  Potency: 0.061 mmol/kg/day

## ClCOCCl
TD50_Mouse_Note: TD50 is harmonic mean of more than one positive test, TargetSites_Mouse_Female: peritoneal cavity
  Potency: 0.00158 mmol/kg/day

## OC[C@H]1O[C@@H]2O[C@H]3[C@H](O)[C@@H](O)[C@@H](O[C@H]4[C@H](O)[C@@H](O)[C@@H](O[C@H]5[C@H](O)[C@@H](O)[C@@H](O[C@H]6[C@H](O)[C@@H](O)[C@@H](O[C@H]7[C@H](O)[C@@H](O)[C@@H](O[C@H]8[C@H](O)[C@@H](O)[C@@H](O[C@H]1[C@H](O)[C@H]2O)O[C@@H]8CO)O[C@@H]7CO)O[C@@H]6CO)O[C@@H]5CO)O[C@@H]4CO)O[C@@H]3CO
[1]
  outcome: inactive; no positive results

## COc1cc(N=Nc2ccccc2)ccc1N
TargetSites_Mouse_Female: liver
  Potency: 0.265 mmol/kg/day

## C=C(Cl)CSC(=S)N(CC)CC
[3]
  Potency: 0.189 mmol/kg/day

## Nc1ccc(O)c(N)c1
[4]
  Potency: 0.726 mmol/kg/day

## Cc1cc(Cl)ccc1N
TD50_Mouse_Note: TD50 is harmonic mean of more than one positive test, greater than ten-fold variation among TD50 values for positive res, TargetSites_Mouse_Female: vascular system
  Potency: 0.145 mmol/kg/day

## F
[1]
  outcome: inactive; no positive results

## O=C1CCCCCN1
[1]
  outcome: inactive; no positive results

## C=CC
[1]
  outcome: inactive; no positive results

## O=C(CCl)c1ccccc1
[1]
  outcome: inactive; no positive results

## Cc1c(N(C)CS(=O)(=O)O)c(=O)n(-c2ccccc2)n1C
[2]
  Potency: 1.89 mmol/kg/day

## COC(=O)C(c1ccccc1)C1CCCCN1 (stereo not given)
[2]
  Potency: 0.371 mmol/kg/day

## CC(C)(OCc1ccc(-c2ccc(Cl)cc2)cc1)C(=O)O
[4]
  Potency: 0.505 mmol/kg/day

## C[C@@H]1Cc2c(Cl)cc(C(=O)N[C@@H](Cc3ccccc3)C(=O)O)c(O)c2C(=O)O1
[2]
  Potency: 0.0159 mmol/kg/day

## NC(=O)N/N=C/c1ccc([N+](=O)[O-])o1
TargetSites_Mouse_Female: ovary
  Potency: 0.155 mmol/kg/day

## CN(Cc1cnc2nc(N)nc(N)c2n1)c1ccc(C(=O)N[C@@H](CCC(=O)O)C(=O)O)cc1
[1]
  outcome: inactive; no positive results

## [Cd+2].[Cl-].[Cl-]
[1]
  outcome: inactive

## CC(C)OC(=O)Nc1cccc(Cl)c1
[1]
  outcome: inactive; no positive results

## IC(I)I
[1]
  outcome: inactive; no positive results

## Cc1cc(C)nc(NS(=O)(=O)c2ccc(N)cc2)n1
TD50_Mouse_Note: TD50 is harmonic mean of more than one positive test, TargetSites_Mouse_Female: thyroid gland
  Potency: 5.43 mmol/kg/day

## c1ccc(C2CO2)cc1 (stereo not given)
TD50_Mouse_Note: TD50 is harmonic mean of more than one positive test, TargetSites_Mouse_Female: stomach
  Potency: 0.982 mmol/kg/day

## CN1C(=O)C(O)N=C(c2ccccc2)c2cc(Cl)ccc21 (stereo not given)
[1]
  outcome: inactive; no positive results

## O=[N+]([O-])c1ccc2nc[nH]c2c1
[2]
  Potency: 2.28 mmol/kg/day

## Nc1ccc(N)cc1
[1]
  outcome: inactive; no positive results

## CN(C)CCOC(C)(c1ccccc1)c1ccccn1 (stereo not given)
TD50_Mouse_Note: TD50 is harmonic mean of more than one positive test, TargetSites_Mouse_Female: liver, thyroid gland
  Potency: 0.538 mmol/kg/day

## Nc1nc(=S)c2ncn([C@H]3C[C@H](O)[C@@H](CO)O3)c2[nH]1
[7]
  outcome: ntp bioassay inadequate

## C[C@]12CC[C@H](OS(=O)(=O)O)CC1=CC[C@@H]1[C@@H]2CC[C@]2(C)C(=O)CC[C@@H]12
[1]
  outcome: inactive; no positive results

## Nc1cccc2ccccc12
  Potency: 0.47 mmol/kg/day

## CCc1cc(C(N)=S)ccn1
TargetSites_Mouse_Female: thyroid gland
  Potency: 0.417 mmol/kg/day

## c1ccoc1
TD50_Mouse_Note: TD50 is harmonic mean of more than one positive test, TargetSites_Mouse_Female: adrenal gland, liver
  Potency: 0.04 mmol/kg/day

## O=C(O)C(Cl)Cl
[2]
  Potency: 0.923 mmol/kg/day

## CCC(Cl)CCC(Cl)C(Cl)CC(Cl)C(Cl)C(Cl)CCl (stereo not given)
TD50_Mouse_Note: TD50 is harmonic mean of more than one positive test, TD50_Mouse_mmol was not calculated for this mixture, but Activiity, TargetSites_Mouse_Female: liver, thyroid gland
  outcome: active; liver

## Cc1ccc(N=C=O)cc1N=C=O
TargetSites_Mouse_Female: liver, vascular system
  Potency: 1.44 mmol/kg/day

## O=C(O)c1ccncc1
[1]
  outcome: inactive; no positive results

## [S-]c1nc2ccccc2s1.[S-]c1nc2ccccc2s1.[Zn+2]
[1]
  outcome: inactive; no positive results

## CCC1(c2ccccc2)C(=O)NCNC1=O
[2]
  Potency: 0.12 mmol/kg/day

## C=CCNNCC=C
TD50_Mouse_Note: TD50 is harmonic mean of more than one positive test, TargetSites_Mouse_Female: lung
  Potency: 0.183 mmol/kg/day

## NC(=S)Nc1cccc2ccccc12
[1]
  outcome: inactive; no positive results

## COc1c(Cl)c(Cl)c([N+](=O)[O-])c(Cl)c1Cl
[1]
  outcome: inactive; no positive results

## CCOC(=O)C(C)(C)Oc1ccc(Cl)cc1
[1]
  outcome: inactive; no positive results

## Nc1c(F)c(N)c(F)c(F)c1F
[4]
  Potency: 0.341 mmol/kg/day
